In US20150157568A1, “Treatment of Spasticity with Intrathecal Dantrolene” (Allergan, Inc., priority 2013, published 2015):

Test system: awake spastic rats
Test: Spastic rat model (EMG activity during ankle dorsiflexion after spinal cord ischemia)
Assay type: in vivo, Sprague-Dawley rats
Experimental: FIG. 2 describes the rat spasticity model. (A,B) Electromyogram (EMG) responses (recorded from the gastrocnemius muscle) from an awake, but restrained normal and representative spastic rat when the ankle is rotated at velocity of (40°/3 sec) using a computer-controlled ankle rotational device. The presence of spasticity is identified by the appearance of burst EMG activity (active EMG). (C) To calculate the percent of inhibition of spastic muscle activity by a test agent during ankle dorsiflexion, animals were anaesthetized with isoflurane at the end of the experiment and the magnitude of active EMG during ankle dorsiflexion measured under isoflurane anaesthesia is then used as the maximum possible effect and is defined in each spastic animal. All drug treatment data generated after treatment are then normalized in using the maximum effect seen under isoflurane anaesthesia.
Animal: Male Sprague-Dawley rats (approximately 350 gram body weight) were used in the assay. The rats were housed at room temperature (65-82° F.) and relative humidity within the range between 30 to 70%. The room will be illuminated with fluorescent lighting on a daily 12 hour light/dark cycle. All animals will have free access to dry food. Municipal water will be freely available.
Spasticity development and measurement: Rats were exposed to transient spinal cord ischemia by aortic balloon occlusion for 10-12 minutes. Animals with fully developed spasticity will be selected at 4-8 weeks after ischemic injury and prepared for spasticity measurement. Presence of spasticity will be defined by increased peripheral muscle resistance measured during computer-controlled ankle dorsiflexion and correlative changes in EMG (electromyography) activity measured in gastrocnemius muscle (see FIG. 2).
An increased EMG activity induced by ankle dorsiflexion is a consistent and reliable measure of spasticity. Before administration of dantrolene, baseline EMG measurements were conducted. Animals with identified spasticity were then assigned to the experimental groups to be treated with dantrolene or vehicle through intraperitoneal and intrathecal routes.
Intraperitoneal dosing: Three different doses (5, 15, 50 mg/kg) of dantrolene and vehicle were injected intraperitoneally (6 rats per treatment/dose). After dantrolene administration, correlative changes in EMG were recorded at 15, 30, 60, 90, and 120 minutes following intraperitoneal injection. Changes in baseline EMG activity and ankle-rotation evoked EMG activity were then analyzed and the efficacy of treatment on spasticity calculated.
Intrathecal dosing: Animals with identified spasticity were implanted intrathecally with a fine plastic (e.g., PE-10) catheter for bolus drug delivery. Two to three days after intrathecal catheter implantation, the baseline spasticity response was measured and animals were then injected IT with dantrolene (250 μg, 6 rats) and spasticity response was measured for 2 hrs. In control animals (6 rats) vehicle was injected only.

[1] = intraperitoneal (IP), 50 mg/kg, single injection, awake spastic rats

Compound	effect on spastic activity (positive control, maximal anti-spastic effect) (isoflurane anesthesia at the end of the experiment, defined as 0%)	effect of systemic administration on spastic activity (intraperitoneal (IP) injection, 5, 15, 50 mg/kg, awake spastic rats)	spastic activity, % of the pre-treatment level (intraperitoneal (IP), 50 mg/kg, single injection, highest dose tested, awake spastic rats)	duration of reduction of spastic activity [1]	reduction of spastic activity [1] [%]	anti-spastic effect of intrathecal administration (intrathecal (IT), single 250 μg bolus injection, awake spastic rats (n=6), at least as robust as 50 mg/kg systemic)
FC(F)OC(Cl)C(F)(F)F (stereo not drawn) [Isoflurane]	virtually eliminated all spastic activity					
O=C1CN(/N=C/c2ccc(-c3ccc([N+](=O)[O-])cc3)o2)C(O)=N1 [dantrolene]		reduces spastic activity in the awake spastic rats in a dose dependent manner	about 30%	at least 2 hours	70	potent anti-spastic effect
